Data from paper PMC11556746, “Anchorage of bacterial effector at plasma membrane via selective phosphatidic acid binding to modulate host cell signaling” (PLOS Pathogens, 2024).

Target: T1, BepE-BID1 (Bartonella henselae, UniProt A0A0R4J6H0)
T1 construct: gene BH13420; first BID domain (BID1) of BepE, His-tagged, expressed in E. coli, Ni-NTA
Assay: metasurface plasmon resonance (SPR), immobilised protein
Format: binding
Conditions: lipid presented in liposomes (PC:POPA, 90% PC and 10% POPA); HBS-ET buffer

T1 sequence (A0A0R4J6H0 entry or part of it): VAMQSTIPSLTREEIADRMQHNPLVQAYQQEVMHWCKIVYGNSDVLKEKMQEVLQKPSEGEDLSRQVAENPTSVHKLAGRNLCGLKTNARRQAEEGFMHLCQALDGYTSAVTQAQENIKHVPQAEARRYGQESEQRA

SMILES: CCCCCCCC/C=C\CCCCCCCC(=O)O[C@H](COC(=O)CCCCCCCCCCCCCCC)COP(=O)(O)O [POPA]
- Kd: ~349 nM
